Data from patent publication US5262521A (SRI International, priority 1991, dated 1993).
Like-named read-outs stand apart in the source and are kept apart here. *1 amine or outer side, *2 acyl side, *3 side chain or, on linkers, in order; H or OH if unused. Where a SMILES comes first, the peptide text is derived from it. [ ]: non-standard residue; d: D form. The star is where a group is joined. Sta = CC(C)C[C@H](N)[C@@H](O)CC(=O)O; Isovaleryl = CC(C)CC(=O)*; CO = O=C([*:1])[*:2]

System: atrial peptide-degrading enzyme (ADE)
Assay: Inhibition of ADE activity (AcAPI production from 50 μM AcAPII, HPLC)
Assay type: biochemical, bovine
Experimental: The concentration of enzyme and AcAPII were chosen so that approximately 80% of the AcAPII was degraded in the absence of inhibitor. The production of AcAPI was determined by integration of the AcI peak, and percent inhibition by the inhibitors was calculated.
(e.) Enzyme Inhibitor Testing: To further characterize ADE, the extent of inhibition by several known peptidase inhibitors was determined.

[1] = inhibitor 0.1 mM, 50 μM AcAPII, 1 hour, 37° C.
[2] = inhibitor 1 mM, 50 μM AcAPII, 1 hour, 37° C.
[3] = inhibitor 5 mM, 50 μM AcAPII, 1 hour, 37° C.

CC(C)C[C@H](NC(=O)[C@H]1O[C@@H]1C(=O)O)C(=O)NCCCCN=C(N)N (relative stereo) [E64, trans-Epoxysuccinyl-L-leucylamido-(4-guanidino)butane]
Percent Inhibition of ADE [1]: 0%

c1cnc2c(c1)ccc1cccnc12 [1,10-Phenanthroline]
Inhibition of ADE, in words: inhibited activity to a slightly lesser extent
Percent Inhibition of ADE [2]: 72%

CC(C)C[C@H](NC(=O)[C@@H](N)CO)C(=O)N[C@@H](CCCNC(=N)N)C(=O)N[C@@H](CCCNC(=N)N)C(=O)N[C@@H](CO)C(=O)N[C@@H](CO)C(=O)N[C@H](C)C(=O)NCC(=O)N[C@H](C)C(=O)N[C@@H](CC(N)=O)C(=O)N[C@@H](CO)C(=O)N[C@@H](Cc1ccccc1)C(=O)N[C@@H](CCCNC(=N)N)C(=O)N[C@@H](Cc1ccc(O)cc1)C(N)=O [(I), Ser-Leu-Arg-Arg-Ser-Ser-DAla-Gly-DAla-Asn-Ser-Phe-Arg-Tyr-NH2] (H-SLRRSS[dA]G[dA]NSFRY-NH2)
% Inhibition At 0.1 mM (Table 10): 46%

CC(C)C[C@H](NC(=O)[C@@H](N)CO)C(=O)N[C@@H](CCCNC(=N)N)C(=O)N[C@@H](CCCNC(=N)N)C(=O)N[C@@H](CO)C(=O)N[C@@H](CO)C(=O)N[C@H](C)C(=O)NCC(=O)N[C@H](C)C(=O)N[C@@H](CC(N)=O)C(=O)N[C@@H](CO)C(=O)N[C@H](Cc1ccccc1)C(=O)N[C@@H](CCCNC(=N)N)C(=O)N[C@@H](Cc1ccc(O)cc1)C(N)=O [(II), Ser-Leu-Arg-Arg-Ser-Ser-DAla-Gly-DAla-Asn-Ser-DPhe-Arg-Tyr-NH2] (H-SLRRSS[dA]G[dA]NS[dF]RY-NH2)
% Inhibition At 0.1 mM (Table 10): 28%

CC(C)C[C@H](NC(=O)[C@@H](N)CO)C(=O)N[C@@H](CCCNC(=N)N)C(=O)N[C@@H](CCCNC(=N)N)C(=O)N[C@@H](CO)C(=O)N[C@@H](CO)C(=O)N[C@H](C)C(=O)NCC(=O)N[C@H](C)C(=O)N[C@@H](CC(N)=O)C(=O)N[C@H](CO)C(=O)N[C@@H](Cc1ccccc1)C(=O)N[C@@H](CCCNC(=N)N)C(=O)N[C@@H](Cc1ccc(O)cc1)C(N)=O [(III), Ser-Leu-Arg-Arg-Ser-Ser-DAla-Gly-DAla-Asn-DSer-Phe-Arg-Tyr-NH2] (H-SLRRSS[dA]G[dA]N[dS]FRY-NH2)
% Inhibition At 0.1 mM (Table 10): 22%

CC(C)C[C@H](NC(=O)[C@@H](N)CO)C(=O)N[C@@H](CCCNC(=N)N)C(=O)N[C@@H](CCCNC(=N)N)C(=O)N[C@@H](CO)C(=O)N[C@@H](CO)C(=O)N[C@H](C)C(=O)NCC(=O)N[C@H](C)C(=O)N[C@@H](CC(N)=O)C(=O)N[C@@H](CS)C(=O)N[C@@H](Cc1ccccc1)C(=O)N[C@@H](CCCNC(=N)N)C(=O)N[C@@H](Cc1ccc(O)cc1)C(N)=O [(IV), Ser-Leu-Arg-Arg-Ser-Ser-DAla-Gly-DAla-Asn-Cys-Phe-Arg-Tyr-NH2] (H-SLRRSS[dA]G[dA]NCFRY-NH2)
IC50 (Table 10): 32.5 µM
% Inhibition At 0.1 mM (Table 10): 68%

CC(C)C[C@H](NC(=O)[C@@H](N)CO)C(=O)N[C@@H](CCCNC(=N)N)C(=O)N[C@@H](CCCNC(=N)N)C(=O)N[C@@H](CO)C(=O)N[C@@H](CO)C(=O)N[C@H](C)C(=O)NCC(=O)N[C@H](C)C(=O)N[C@@H](CC(N)=O)C(=O)N[C@@H](CS)C(=O)N[C@H](Cc1ccccc1)C(=O)N[C@@H](CCCNC(=N)N)C(N)=O [(VI), Ser-Leu-Arg-Arg-Ser-Ser-DAla-Gly-DAla-Asn-Cys-DPhe-Arg-NH2] (H-SLRRSS[dA]G[dA]NC[dF]R-NH2)
% Inhibition At 0.1 mM (Table 10): 74%

CC(C)[C@H](NC(=O)[C@H](CCCNC(=N)N)NC(=O)N[C@@H](Cc1ccccc1)C(=O)O)C(=O)N[C@H](C=O)CCCNC(=N)N [Antipain] ({Phe-CO}-Arg-Val-Arg-aldehyde)
Percent Inhibition of ADE [1]: 0%

C[C@H](CS)C(=O)N1CCC[C@H]1C(=O)O [Captopril]
Inhibition of ADE, in words: slight inhibition
Percent Inhibition of ADE (inhibitor 0.2 mM, 50 μM AcAPII, 1 hour, 37° C.): 33%

CC(C)C[C@H](NC(=O)[C@@H](NC(=O)N[C@@H](Cc1ccccc1)C(=O)O)[C@@H]1CCN=C(N)N1)C(=O)N[C@H](C=O)Cc1ccccc1 [Chymostatin]
Percent Inhibition of ADE [1]: 8%

O=C(O)CN(CCN(CC(=O)O)CC(=O)O)CC(=O)O [EDTA, Ethylenediamine tetraacetic acid]
ADE activity after dialysis of the enzyme (enzyme dialyzed against 1 mM EDTA): totally abolished
Percent Inhibition of ADE [3]: 20%

CC(C)C[C@H](NC(=O)N[C@H](C(=O)N[C@@H](CCC(N)=O)C(=O)N[C@@H](C)C=O)[C@@H]1CCNC(=N)N1)C(=O)O [Elastinal]
Percent Inhibition of ADE [1]: 10%

O=S(=O)(O)c1cc[c]([Hg][OH])cc1 [Hydroxymercuriphenyl sulfonic acid]
Percent Inhibition of ADE [2]: 100%

NC(=O)CI [Iodoacetamide]
Percent Inhibition of ADE [2]: 10%

O=C(O)CI [Iodoacetic acid]
Percent Inhibition of ADE: 0

CC(=O)N[C@@H](CC(C)C)C(=O)N[C@@H](CC(C)C)C(=O)N[C@H](C=O)CCCNC(=N)N [Leupeptine]
Inhibition of ADE, in words: slight inhibition
Percent Inhibition of ADE [1]: 33%

CCN1C(=O)C=CC1=O [NEM, N-ethylmaleimide]
Inhibition of ADE, in words: inhibited
Percent Inhibition of ADE [3]: 97%
ADE activity inhibited by (text summary of Table 4): ~100%

O=S(=O)(F)Cc1ccccc1 [PMSF, Phenylmethylsulfonyl fluoride]
Percent Inhibition of ADE [2]: 8%

CC(C)CC(=O)N[C@H](C(=O)N[C@H](C(=O)N[C@@H](CC(C)C)[C@@H](O)CC(=O)N[C@@H](C)C(=O)N[C@@H](CC(C)C)[C@@H](O)CC(=O)O)C(C)C)C(C)C [Pepstatin] (Isovaleryl-VV[Sta]A[Sta]-OH)
Percent Inhibition of ADE (inhibitor 0.01 mM, 50 μM AcAPII, 1 hour, 37° C.): 0%

CC(C)C[C@H](NP(=O)(O)O[C@@H]1O[C@@H](C)[C@H](O)[C@@H](O)[C@H]1O)C(=O)N[C@@H](Cc1c[nH]c2ccccc12)C(=O)O [Phosphoramidon]
Inhibition of ADE, in words: not inhibited
Percent Inhibition of ADE (inhibitor 0.001 mM, 50 μM AcAPII, 1 hour, 37° C.): 0%

O=C(O)c1cc[c]([Hg][Cl])cc1 [p-Chloromercuribenzoate]
Percent Inhibition of ADE [2]: 95%
